Measurements taken from patent publication US20250170090A1, “METHOD FOR PREVENTING OR TREATING DISEASE OR DISORDER ASSOCIATED WITH ANTINEOPLASTIC AGENT” (ONQUALITY PHARMACEUTICALS CHINA LTD., priority 2022, published 2025).
Like-named read-outs stand apart in the source and are kept apart here.

Experiments:
[1] = system: chemotherapy-induced hand-foot syndrome; assay: Prevention of chemotherapy-induced hand-foot syndrome in rat models (Table 5); assay type: in vivo, SD rats
Description: Rat animal model was constructed. After several days, the rats develop hand-foot syndrome in their paws. After one week of acclimatization (about 200 g), the SD rats are divided into groups of 10 rats each, followed by gavage administration experiment. The chemotherapy drugs were dissolved, and each rat was given a gavage dose of 1 mL/100 g. After gavage, the rats were fixed with a fixed cylinder. NO-NSAID ointment was applied to the paws of the rats in the medication group, and blank ointment was applied to the paws of the rats in the blank group (as blank control). […] Table 5 lists the animal experimental combinations of chemotherapy drugs and NO-NSAID ointment, as well as the corresponding experimental results (where the value in the control rate column=the incidence rate of hand-foot syndrome in the blank group−the incidence rate of hand-foot syndrome in the treatment group).

HUVEC cells = assay: CCK-8 cell viability: alleviation of proliferative toxicity of anti-tumor agents on HUVEC cells (Tables 7-1, 7-2); assay type: cell-based; details: for activation at 100 µM: Homo sapiens, 24 h, percentage increase in viable cells vs anti-tumor agent alone, read-out: Response rate % (average)
Description: The cultured HUVEC cells were digested the suspended, counted, and seed into a 96-well plate with 5,000-10,000 cells per well. The wells are divided into the following groups: blank control group, anti-tumor agent group, anti-tumor agent+NO-NSAID group, anti-tumor agent solvent group, NO-NSAID control group. Wherein each well of each group contained a basic medium, and the final liquid volume contained in each well was about 100 μL. The grouping situation was as follows: • 1) Blank control group: no solution was added except normally replacing the medium; • 2) Anti-tumor agent group: added the anti-tumor agent solution (the final concentration was shown in Table 7-1 and Table 7-2, the solvent of the anti-tumor agent solution was DMSO); • 3) Anti-tumor agent+NO-NSAID group: added the anti-tumor agent solution and the NO-NSAID solution (the final concentrations of anti-tumor agent and NO-NSAID were shown in Table 7-1 and Table 7-2, and according to the solubility of NO-NSAID, the solvent of NO-NSAID solution was selected as ethanol or sterile water, and minor volume differences in each group were adjusted by added the corresponding solvent); • 4) Anti-tumor agent solvent group: an equal volume of DMSO as contained in the corresponding anti-tumor agent solution in Group 2) was added; • 5) NO-NSAID control group: the same volume and type of solvent (for example, ethanol or sterile water) corresponding to the NO-NSAID contained in group 3) was added.
The anti-tumor agent solvent group was not involved in data processing and was only used as a reference for evaluating experimental system error. The NO-NSAID solvent control group was used for data correction to eliminate the influence of the solvent on the results.
After culturing for 24-48 hours, the Cell Counting Kit-8 (CCK-8) detection kit (C0037, Shanghai Beyotime Biotechnology Co., Ltd., Beyotime Biotechnology) was used to determine the cell viability. This allows for the calculation of the proliferative toxicity of anti-tumor agent on cell and the mitigating effect of NO-NSAID on proliferative toxicity. The results were statistically analyzed and plotted using GraphPad Prism 6.0 software and t test.

[2] = Afatinib (10 μM), NO-NSAID 100 μM
[3] = Cabozantinib (5 μM), NO-NSAID 100 μM
[4] = Dabrafenib (10 μM), NO-NSAID 100 μM
[5] = Everolimus (5 μM), NO-NSAID 100 μM
[6] = Infigratinib (15 μM), NO-NSAID 100 μM
[7] = Lapatinib (5 μM), NO-NSAID 100 μM
[8] = Lenvatinib (10 μM), NO-NSAID 100 μM
[9] = Olmutinib (10 μM), NO-NSAID 100 μM
[10] = Regorafenib (5 μM), NO-NSAID 100 μM
[11] = Selumetinib (5 μM), NO-NSAID 100 μM
[12] = Sorafenib (5 μM), NO-NSAID 100 μM
[13] = Sunitinib (5 μM), NO-NSAID 100 μM

CC(C)Cc1ccc(C(C)C(=O)OCO/N=[N+](\[O-])N(C)C)cc1 (stereo not shown) [Compound A4]
Control rate ([1]; Capecitabine 4000 mg/kg once a day, ointment 0.50% wt, Days 40): 25.00% | Control rate ([1]; Capecitabine 4000 mg/kg once a day, ointment 2% wt, Days 40): 57.14% | Control rate ([1]; Cytarabine 120 mg/kg twice a day, ointment 0.50% wt, Days 30): 28.57% | NO-NSAID response rate % (average) (HUVEC cells; Afatinib (10 μM), NO-NSAID 0.1 μM): 18% | NO-NSAID response rate % (average) (HUVEC cells; Afatinib (10 μM), NO-NSAID 1 μM): 35% | NO-NSAID response rate % (average) (HUVEC cells; [2]): 70% | NO-NSAID response rate % (average) (HUVEC cells; Afatinib (10 μM), NO-NSAID 500 μM): 14% | NO-NSAID response rate % (average) (HUVEC cells; Cabozantinib (5 μM), NO-NSAID 0.1 μM): 3% | NO-NSAID response rate % (average) (HUVEC cells; Cabozantinib (5 μM), NO-NSAID 1 μM): 9% | NO-NSAID response rate % (average) (HUVEC cells; [3]): 13% | NO-NSAID response rate % (average) (HUVEC cells; Cabozantinib (5 μM), NO-NSAID 500 μM): 11% | NO-NSAID response rate % (average) (HUVEC cells; Dabrafenib (10 μM), NO-NSAID 0.1 μM): 20% | NO-NSAID response rate % (average) (HUVEC cells; Dabrafenib (10 μM), NO-NSAID 1 μM): 34% | NO-NSAID response rate % (average) (HUVEC cells; [4]): 33% | NO-NSAID response rate % (average) (HUVEC cells; Dabrafenib (10 μM), NO-NSAID 500 μM): 41% | NO-NSAID response rate % (average) (HUVEC cells; Everolimus (5 μM), NO-NSAID 0.1 μM): 10% | NO-NSAID response rate % (average) (HUVEC cells; Everolimus (5 μM), NO-NSAID 1 μM): −2% | NO-NSAID response rate % (average) (HUVEC cells; [5]): 1% | NO-NSAID response rate % (average) (HUVEC cells; Everolimus (5 μM), NO-NSAID 500 μM): 4% | activation at 100 µM (HUVEC cells; [2]): 70% | activation at 100 µM (HUVEC cells; Anlotinib (5 μM), NO-NSAID 100 μM): 67% | activation at 100 µM (HUVEC cells; Apatinib (10 μM), NO-NSAID 100 μM): 52% | activation at 100 µM (HUVEC cells; Axitinib (10 μM), NO-NSAID 100 μM): 39% | activation at 100 µM (HUVEC cells; [3]): 13% | activation at 100 µM (HUVEC cells; [4]): 33% | activation at 100 µM (HUVEC cells; Dacomitinib (5 μM), NO-NSAID 100 μM): 71% | activation at 100 µM (HUVEC cells; Encorafenib (5 μM), NO-NSAID 100 μM): 59% | activation at 100 µM (HUVEC cells; Erdafitinib (10 μM), NO-NSAID 100 μM): 45% | activation at 100 µM (HUVEC cells; [5]): 1% | activation at 100 µM (HUVEC cells; Famitinib (5 μM), NO-NSAID 100 μM): 69% | activation at 100 µM (HUVEC cells; Fruquintinib (10 μM), NO-NSAID 100 μM): 62% | activation at 100 µM (HUVEC cells; Gefitinib (10 μM), NO-NSAID 100 μM): 42% | activation at 100 µM (HUVEC cells; [6]): 30% | activation at 100 µM (HUVEC cells; [7]): 30% | activation at 100 µM (HUVEC cells; [8]): 74% | activation at 100 µM (HUVEC cells; [9]): 28% | activation at 100 µM (HUVEC cells; [10]): 74% | activation at 100 µM (HUVEC cells; [11]): 34% | activation at 100 µM (HUVEC cells; [12]): 76% | activation at 100 µM (HUVEC cells; [13]): 34% | activation at 100 µM (HUVEC cells; Vemurafenib (5 μM), NO-NSAID 100 μM): 58% | NO-NSAID response rate % (average) (HUVEC cells; Infigratinib (15 μM), NO-NSAID 0.1 μM): 23% | NO-NSAID response rate % (average) (HUVEC cells; Infigratinib (15 μM), NO-NSAID 1 μM): 39% | NO-NSAID response rate % (average) (HUVEC cells; [6]): 30% | NO-NSAID response rate % (average) (HUVEC cells; Infigratinib (15 μM), NO-NSAID 500 μM): 18% | NO-NSAID response rate % (average) (HUVEC cells; Lapatinib (5 μM), NO-NSAID 0.1 μM): 20% | NO-NSAID response rate % (average) (HUVEC cells; Lapatinib (5 μM), NO-NSAID 1 μM): 17% | NO-NSAID response rate % (average) (HUVEC cells; [7]): 30% | NO-NSAID response rate % (average) (HUVEC cells; Lapatinib (5 μM), NO-NSAID 500 μM): 28% | NO-NSAID response rate % (average) (HUVEC cells; Lenvatinib (10 μM), NO-NSAID 0.1 μM): 24% | NO-NSAID response rate % (average) (HUVEC cells; Lenvatinib (10 μM), NO-NSAID 1 μM): 15% | NO-NSAID response rate % (average) (HUVEC cells; [8]): 74% | NO-NSAID response rate % (average) (HUVEC cells; Lenvatinib (10 μM), NO-NSAID 500 μM): 14% | NO-NSAID response rate % (average) (HUVEC cells; Olmutinib (10 μM), NO-NSAID 0.1 μM): 25% | NO-NSAID response rate % (average) (HUVEC cells; Olmutinib (10 μM), NO-NSAID 1 μM): 38% | NO-NSAID response rate % (average) (HUVEC cells; [9]): 28% | NO-NSAID response rate % (average) (HUVEC cells; Olmutinib (10 μM), NO-NSAID 500 μM): 30% | NO-NSAID response rate % (average) (HUVEC cells; Regorafenib (5 μM), NO-NSAID 0.1 μM): 29% | NO-NSAID response rate % (average) (HUVEC cells; Regorafenib (5 μM), NO-NSAID 1 μM): 26% | NO-NSAID response rate % (average) (HUVEC cells; [10]): 74% | NO-NSAID response rate % (average) (HUVEC cells; Regorafenib (5 μM), NO-NSAID 500 μM): 26% | NO-NSAID response rate % (average) (HUVEC cells; Selumetinib (5 μM), NO-NSAID 0.1 μM): 35% | NO-NSAID response rate % (average) (HUVEC cells; Selumetinib (5 μM), NO-NSAID 1 μM): 33% | NO-NSAID response rate % (average) (HUVEC cells; [11]): 34% | NO-NSAID response rate % (average) (HUVEC cells; Selumetinib (5 μM), NO-NSAID 500 μM): 41% | NO-NSAID response rate % (average) (HUVEC cells; Sorafenib (5 μM), NO-NSAID 0.1 μM): 4% | NO-NSAID response rate % (average) (HUVEC cells; Sorafenib (5 μM), NO-NSAID 1 μM): 17% | NO-NSAID response rate % (average) (HUVEC cells; [12]): 76% | NO-NSAID response rate % (average) (HUVEC cells; Sorafenib (5 μM), NO-NSAID 500 μM): 16% | NO-NSAID response rate % (average) (HUVEC cells; Sunitinib (5 μM), NO-NSAID 0.1 μM): 19% | NO-NSAID response rate % (average) (HUVEC cells; Sunitinib (5 μM), NO-NSAID 1 μM): 20% | NO-NSAID response rate % (average) (HUVEC cells; [13]): 34% | NO-NSAID response rate % (average) (HUVEC cells; Sunitinib (5 μM), NO-NSAID 500 μM): 20%
